Measured values published in ChEMBL document CHEMBL3808337, “Rapid Discovery of Pyrido[3,4-d]pyrimidine Inhibitors of Monopolar Spindle Kinase 1 (MPS1) Using a Structure-Based Hybridization Approach” (J Med Chem, 2016).

Assays:
Cytochrome P450 2D6 = Cytochrome P450 2D6 (Homo sapiens, UniProt P10635)
Cytochrome P450 1A2 = molecular target: T1, Cytochrome P450 1A2 (Homo sapiens, UniProt P05177); assay: Inhibition of CYP1A2 (unknown origin); type: ADME
T1 sequence (P05177 whole entry): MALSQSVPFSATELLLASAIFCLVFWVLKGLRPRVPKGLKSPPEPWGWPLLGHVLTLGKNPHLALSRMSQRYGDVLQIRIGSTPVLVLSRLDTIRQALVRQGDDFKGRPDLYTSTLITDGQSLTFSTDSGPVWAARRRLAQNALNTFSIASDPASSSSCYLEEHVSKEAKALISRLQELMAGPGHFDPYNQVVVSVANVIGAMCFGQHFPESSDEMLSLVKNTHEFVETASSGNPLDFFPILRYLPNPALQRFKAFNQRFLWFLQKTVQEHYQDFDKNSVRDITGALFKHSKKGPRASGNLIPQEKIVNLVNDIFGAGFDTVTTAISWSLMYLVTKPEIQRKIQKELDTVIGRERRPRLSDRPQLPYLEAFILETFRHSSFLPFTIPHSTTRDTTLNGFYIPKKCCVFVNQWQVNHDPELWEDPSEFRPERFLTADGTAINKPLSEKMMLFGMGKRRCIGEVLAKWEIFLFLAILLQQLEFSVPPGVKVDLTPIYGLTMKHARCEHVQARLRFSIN

Cytochrome P450 2C19 = Cytochrome P450 2C19 (Homo sapiens, UniProt P33261); assay: Inhibition of CYP2C19 (unknown origin); type: ADME
Cytochrome P450 2C9 = Cytochrome P450 2C9 (Homo sapiens, UniProt P11712); assay: Inhibition of CYP2C9 (unknown origin); type: ADME
Cytochrome P450 3A4 = Cytochrome P450 3A4 (Homo sapiens, UniProt P08684)
[1] = Drug metabolism in CD1 mouse liver microsomes at 10 uM after 30 mins by LCMS analysis; type: ADME; settings: read-out: Drug metabolism
CDK2/Cyclin A2 = CDK2/Cyclin A2 (Homo sapiens, UniProt P24941)
[2] = Antiproliferative activity against human HCT116 cells assessed as cell viability after 72 hrs by MTT assay; type: functional; settings: HCT-116, 72 h

Chain of Cytochrome P450 2C9 (P11712 whole entry): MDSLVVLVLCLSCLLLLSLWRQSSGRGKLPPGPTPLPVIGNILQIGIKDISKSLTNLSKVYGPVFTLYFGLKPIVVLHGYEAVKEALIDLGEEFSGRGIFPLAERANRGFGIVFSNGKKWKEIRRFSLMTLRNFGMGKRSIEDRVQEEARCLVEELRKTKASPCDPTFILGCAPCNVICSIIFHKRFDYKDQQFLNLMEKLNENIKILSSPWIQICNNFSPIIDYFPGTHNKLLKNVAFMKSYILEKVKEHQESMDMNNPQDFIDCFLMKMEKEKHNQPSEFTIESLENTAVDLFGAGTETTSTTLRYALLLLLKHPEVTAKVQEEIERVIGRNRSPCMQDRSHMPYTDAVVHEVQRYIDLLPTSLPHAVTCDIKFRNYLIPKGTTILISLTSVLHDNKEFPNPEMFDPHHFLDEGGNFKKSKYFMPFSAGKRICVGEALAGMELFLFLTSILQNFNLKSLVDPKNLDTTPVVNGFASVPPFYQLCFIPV
Chain of Cytochrome P450 3A4 (P08684 whole entry): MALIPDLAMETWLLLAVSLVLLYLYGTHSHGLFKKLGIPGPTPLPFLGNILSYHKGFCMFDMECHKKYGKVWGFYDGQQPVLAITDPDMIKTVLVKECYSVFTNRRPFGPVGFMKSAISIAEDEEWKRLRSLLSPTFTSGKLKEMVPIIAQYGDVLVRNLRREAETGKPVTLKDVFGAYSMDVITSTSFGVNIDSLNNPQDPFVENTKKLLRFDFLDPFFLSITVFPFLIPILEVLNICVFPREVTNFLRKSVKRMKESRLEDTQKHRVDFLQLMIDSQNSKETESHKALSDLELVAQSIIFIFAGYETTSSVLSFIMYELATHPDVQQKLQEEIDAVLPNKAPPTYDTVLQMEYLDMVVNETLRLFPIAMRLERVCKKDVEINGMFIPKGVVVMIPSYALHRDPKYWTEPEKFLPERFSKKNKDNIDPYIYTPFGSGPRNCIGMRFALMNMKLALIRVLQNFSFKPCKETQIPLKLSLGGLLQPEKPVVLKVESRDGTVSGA
Chain of Cytochrome P450 2D6 (P10635 whole entry): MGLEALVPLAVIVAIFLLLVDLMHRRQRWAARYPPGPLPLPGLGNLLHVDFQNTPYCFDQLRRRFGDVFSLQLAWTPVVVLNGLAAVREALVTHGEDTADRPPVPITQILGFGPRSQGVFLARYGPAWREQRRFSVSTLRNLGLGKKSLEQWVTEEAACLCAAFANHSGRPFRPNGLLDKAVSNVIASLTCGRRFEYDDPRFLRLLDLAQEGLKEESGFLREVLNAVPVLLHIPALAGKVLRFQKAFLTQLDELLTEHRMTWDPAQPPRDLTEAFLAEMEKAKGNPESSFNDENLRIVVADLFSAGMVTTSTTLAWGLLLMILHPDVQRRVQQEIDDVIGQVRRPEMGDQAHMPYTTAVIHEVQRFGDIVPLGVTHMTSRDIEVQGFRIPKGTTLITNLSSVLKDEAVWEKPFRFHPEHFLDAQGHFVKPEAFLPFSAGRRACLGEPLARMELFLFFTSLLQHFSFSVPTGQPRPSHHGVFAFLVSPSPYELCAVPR
Chain of Cytochrome P450 2C19 (P33261 whole entry): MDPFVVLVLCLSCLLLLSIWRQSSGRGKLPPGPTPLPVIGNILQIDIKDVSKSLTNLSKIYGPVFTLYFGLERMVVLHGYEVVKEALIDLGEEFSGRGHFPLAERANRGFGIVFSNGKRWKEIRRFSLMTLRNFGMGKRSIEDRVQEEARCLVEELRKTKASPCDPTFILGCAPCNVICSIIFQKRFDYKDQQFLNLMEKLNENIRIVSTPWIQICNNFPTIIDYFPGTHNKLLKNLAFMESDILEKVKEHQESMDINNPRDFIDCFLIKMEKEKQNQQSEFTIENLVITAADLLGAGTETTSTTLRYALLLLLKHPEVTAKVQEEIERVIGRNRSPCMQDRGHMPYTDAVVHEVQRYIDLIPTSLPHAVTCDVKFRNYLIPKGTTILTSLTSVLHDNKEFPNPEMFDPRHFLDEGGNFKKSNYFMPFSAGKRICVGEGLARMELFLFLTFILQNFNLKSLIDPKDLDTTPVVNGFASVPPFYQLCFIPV

## Cn1cc(-c2cc3cnc(Nc4ccc(-c5cncn5C)cc4Cl)cc3n2C(=O)OC(C)(C)C)cn1
Cytochrome P450 2D6
  IC50: < 1000 nM
Cytochrome P450 1A2
  IC50: < 1000 nM
Cytochrome P450 2C19
  IC50: < 1000 nM
Cytochrome P450 2C9
  IC50: < 1000 nM
Cytochrome P450 3A4
  IC50: < 1000 nM

## CCOc1cc(-c2cnn(C)c2)ccc1Nc1ncc2ccnc(-c3cnn(C)c3)c2n1
[1]
  metabolised at 0.5 h, 10 µM: 45%
CDK2/Cyclin A2
  IC50: > 45000 nM

## COc1cc(-c2cnn(C)c2)ccc1Nc1ncc2ccnc(NC3CCCCC3)c2n1
[1]
  metabolised at 0.5 h, 10 µM: 22%
CDK2/Cyclin A2
  IC50: 190 nM
  Ki: 100 nM
[2]
  GI50: 120 nM

## COc1cc(-c2cnn(C)c2)ccc1Nc1ncc2ccnc(C3CC3)c2n1
[1]
  metabolised at 0.5 h, 10 µM: 51%

## Cc1cc(-c2cnn(C)c2)ccc1Nc1ncc2ccnc(-c3cnn(C)c3)c2n1
[1]
  metabolised at 0.5 h, 10 µM: 63%

## COc1cc(-c2cnn(C)c2)ccc1Nc1ncc2ccnc(-c3ccccc3)c2n1
[1]
  metabolised at 0.5 h, 10 µM: 40%

## COc1cc(-c2cnn(C)c2)ccc1Nc1ncc2ccnc(N[C@H](C)C(C)(C)C)c2n1
[1]
  metabolised at 0.5 h, 10 µM: 25%
[2]
  GI50: 220 nM

## COc1cc(-c2cnn(C)c2)ccc1Nc1ncc2ccnc(N3CCCC3)c2n1
[1]
  metabolised at 0.5 h, 10 µM: 64%
[2]
  GI50: 470 nM

## COc1cc(-c2cnn(C)c2)ccc1Nc1ncc2ccnc(NCC(C)(C)C)c2n1
[1]
  metabolised at 0.5 h, 10 µM: 31%
[2]
  GI50: 340 nM
